Assay results from ChEMBL document CHEMBL1201862, “PubChem BioAssay data set” (2004).
Activity calls are given as the source filed them.

Columns and labels:
[1] = Luminescence Cell-Based Dose Confirmation HTS to Identify Inhibitors of Platelet Dense Granule Release. [Related pubchem assays: 1663 (Primary HTS), 1678 (Summary of Project)]; assay type: functional
[2] = target: Luciferin 4-monooxygenase (Photinus pyralis, UniProt P08659); assay: firefly luciferase enzyme inhibitors, dose response, biochemical, luminescence (AID 1891)
Chain of Luciferin 4-monooxygenase (P08659 whole entry): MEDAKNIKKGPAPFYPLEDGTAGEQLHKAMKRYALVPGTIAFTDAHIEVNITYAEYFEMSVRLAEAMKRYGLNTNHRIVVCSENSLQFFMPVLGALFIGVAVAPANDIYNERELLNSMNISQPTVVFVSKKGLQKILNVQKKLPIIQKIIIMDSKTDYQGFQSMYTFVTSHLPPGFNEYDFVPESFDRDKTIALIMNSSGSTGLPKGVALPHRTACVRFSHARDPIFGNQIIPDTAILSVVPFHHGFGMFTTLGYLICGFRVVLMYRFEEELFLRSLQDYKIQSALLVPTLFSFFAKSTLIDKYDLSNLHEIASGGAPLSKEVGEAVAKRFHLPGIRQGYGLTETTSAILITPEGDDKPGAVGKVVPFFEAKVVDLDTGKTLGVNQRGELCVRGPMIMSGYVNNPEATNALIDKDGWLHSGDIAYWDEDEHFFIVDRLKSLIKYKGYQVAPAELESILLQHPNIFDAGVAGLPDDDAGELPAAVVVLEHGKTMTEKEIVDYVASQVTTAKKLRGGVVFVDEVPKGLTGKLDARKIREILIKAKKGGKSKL

Paired box protein Pax-8 = Paired box protein Pax-8 (Homo sapiens, UniProt Q06710); assay: inhibitors of PAX8-driven TPO luciferase reporter, dose response, RMG-I cells, cherry-pick (AID 687027); assay type: functional, cell-based;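 note: luciferase reporter driven by Pax8 target thyroperoxidase promoter measured by SteadyGlo luminescence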
Chain of Paired box protein Pax-8 (Q06710 whole entry): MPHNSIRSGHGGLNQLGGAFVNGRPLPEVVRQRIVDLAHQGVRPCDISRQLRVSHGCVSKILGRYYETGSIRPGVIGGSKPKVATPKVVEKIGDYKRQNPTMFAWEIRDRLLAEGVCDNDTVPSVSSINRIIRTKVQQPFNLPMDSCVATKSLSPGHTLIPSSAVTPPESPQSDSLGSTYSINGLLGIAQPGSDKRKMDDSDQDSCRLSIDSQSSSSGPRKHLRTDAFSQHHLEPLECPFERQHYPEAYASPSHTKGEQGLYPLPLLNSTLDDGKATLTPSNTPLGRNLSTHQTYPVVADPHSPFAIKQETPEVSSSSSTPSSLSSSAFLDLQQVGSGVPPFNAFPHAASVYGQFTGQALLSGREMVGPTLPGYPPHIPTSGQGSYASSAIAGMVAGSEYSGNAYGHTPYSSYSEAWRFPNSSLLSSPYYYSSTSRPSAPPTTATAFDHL

[3] = NIH:OVCAR-3 ovarian cancer cell cytotoxicity, dose response, PAX8 inhibitor project, plate reader, dry powder samples (AID 743044); assay type: functional, cell-based
Cytochrome P450 2C9 = Cytochrome P450 2C9 (Homo sapiens, UniProt P11712)
Chain of Cytochrome P450 2C9 (P11712 whole entry): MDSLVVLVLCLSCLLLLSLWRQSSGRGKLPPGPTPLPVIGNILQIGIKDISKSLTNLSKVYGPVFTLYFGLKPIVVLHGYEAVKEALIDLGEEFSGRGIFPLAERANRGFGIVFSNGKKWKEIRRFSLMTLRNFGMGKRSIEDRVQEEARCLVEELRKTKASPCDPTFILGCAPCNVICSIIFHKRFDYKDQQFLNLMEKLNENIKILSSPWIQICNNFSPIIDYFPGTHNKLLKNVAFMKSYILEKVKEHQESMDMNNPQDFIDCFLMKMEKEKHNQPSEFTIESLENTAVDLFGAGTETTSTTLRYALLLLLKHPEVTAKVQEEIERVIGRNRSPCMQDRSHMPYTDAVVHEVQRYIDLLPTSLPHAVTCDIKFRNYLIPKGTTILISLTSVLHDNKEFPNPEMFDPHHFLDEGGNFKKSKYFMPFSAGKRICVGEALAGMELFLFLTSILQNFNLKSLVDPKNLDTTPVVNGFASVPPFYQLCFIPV

Cytochrome P450 2C19 = Cytochrome P450 2C19 (Homo sapiens, UniProt P33261); assay: Cytochrome panel assay with activity outcomes. Panel member name: p450-cyp2c19 Compounds with AC50 equal or less than 10 uM are considered active; assay type: functional; details: read-out: AC50
Chain of Cytochrome P450 2C19 (P33261 whole entry): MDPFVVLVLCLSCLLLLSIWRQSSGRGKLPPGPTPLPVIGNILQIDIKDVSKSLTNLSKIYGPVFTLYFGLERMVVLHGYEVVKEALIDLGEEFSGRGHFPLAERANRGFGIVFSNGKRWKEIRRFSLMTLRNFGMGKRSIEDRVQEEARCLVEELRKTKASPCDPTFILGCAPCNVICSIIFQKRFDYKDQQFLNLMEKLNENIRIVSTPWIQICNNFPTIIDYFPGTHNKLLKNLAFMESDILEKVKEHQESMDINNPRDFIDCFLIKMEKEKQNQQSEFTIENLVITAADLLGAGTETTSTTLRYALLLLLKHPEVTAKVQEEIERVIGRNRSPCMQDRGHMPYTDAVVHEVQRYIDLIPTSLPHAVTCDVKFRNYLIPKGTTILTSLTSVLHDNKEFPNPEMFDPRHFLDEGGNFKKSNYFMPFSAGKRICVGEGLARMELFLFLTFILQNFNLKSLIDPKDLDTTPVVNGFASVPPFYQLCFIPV

[4] = NIH-3T3 fibroblast cytotoxicity, dose response, cytotoxicity control, cell-based, fluorescence, Alamar Blue, secondary assay (AID 2327); assay type: functional;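 note: NIH-3T3 mouse fibroblasts cultured with fluconazole at 8 µg/mL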
cells [5] = assay type: functional, cell-based
cells [6] = assay type: functional, cell-based; remark: listed apart in the source
[7] = C. albicans growth with fluconazole, confirmation, fluorescence, retest (AID 2467); assay type: functional, cell-based
Fatty acid synthase [8] = target: T1, Fatty acid synthase (Homo sapiens, UniProt P49327); assay: FAS thioesterase domain inhibitors, dose response, biochemical, kinetic fluorescence intensity (AID 624326); assay type: functional;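 note: rate of fluorescence rise from hydrolysis of a fluorogenic O-methyl fluorescein ester substrate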
T1 sequence (P49327 whole entry, the tested form may be a part): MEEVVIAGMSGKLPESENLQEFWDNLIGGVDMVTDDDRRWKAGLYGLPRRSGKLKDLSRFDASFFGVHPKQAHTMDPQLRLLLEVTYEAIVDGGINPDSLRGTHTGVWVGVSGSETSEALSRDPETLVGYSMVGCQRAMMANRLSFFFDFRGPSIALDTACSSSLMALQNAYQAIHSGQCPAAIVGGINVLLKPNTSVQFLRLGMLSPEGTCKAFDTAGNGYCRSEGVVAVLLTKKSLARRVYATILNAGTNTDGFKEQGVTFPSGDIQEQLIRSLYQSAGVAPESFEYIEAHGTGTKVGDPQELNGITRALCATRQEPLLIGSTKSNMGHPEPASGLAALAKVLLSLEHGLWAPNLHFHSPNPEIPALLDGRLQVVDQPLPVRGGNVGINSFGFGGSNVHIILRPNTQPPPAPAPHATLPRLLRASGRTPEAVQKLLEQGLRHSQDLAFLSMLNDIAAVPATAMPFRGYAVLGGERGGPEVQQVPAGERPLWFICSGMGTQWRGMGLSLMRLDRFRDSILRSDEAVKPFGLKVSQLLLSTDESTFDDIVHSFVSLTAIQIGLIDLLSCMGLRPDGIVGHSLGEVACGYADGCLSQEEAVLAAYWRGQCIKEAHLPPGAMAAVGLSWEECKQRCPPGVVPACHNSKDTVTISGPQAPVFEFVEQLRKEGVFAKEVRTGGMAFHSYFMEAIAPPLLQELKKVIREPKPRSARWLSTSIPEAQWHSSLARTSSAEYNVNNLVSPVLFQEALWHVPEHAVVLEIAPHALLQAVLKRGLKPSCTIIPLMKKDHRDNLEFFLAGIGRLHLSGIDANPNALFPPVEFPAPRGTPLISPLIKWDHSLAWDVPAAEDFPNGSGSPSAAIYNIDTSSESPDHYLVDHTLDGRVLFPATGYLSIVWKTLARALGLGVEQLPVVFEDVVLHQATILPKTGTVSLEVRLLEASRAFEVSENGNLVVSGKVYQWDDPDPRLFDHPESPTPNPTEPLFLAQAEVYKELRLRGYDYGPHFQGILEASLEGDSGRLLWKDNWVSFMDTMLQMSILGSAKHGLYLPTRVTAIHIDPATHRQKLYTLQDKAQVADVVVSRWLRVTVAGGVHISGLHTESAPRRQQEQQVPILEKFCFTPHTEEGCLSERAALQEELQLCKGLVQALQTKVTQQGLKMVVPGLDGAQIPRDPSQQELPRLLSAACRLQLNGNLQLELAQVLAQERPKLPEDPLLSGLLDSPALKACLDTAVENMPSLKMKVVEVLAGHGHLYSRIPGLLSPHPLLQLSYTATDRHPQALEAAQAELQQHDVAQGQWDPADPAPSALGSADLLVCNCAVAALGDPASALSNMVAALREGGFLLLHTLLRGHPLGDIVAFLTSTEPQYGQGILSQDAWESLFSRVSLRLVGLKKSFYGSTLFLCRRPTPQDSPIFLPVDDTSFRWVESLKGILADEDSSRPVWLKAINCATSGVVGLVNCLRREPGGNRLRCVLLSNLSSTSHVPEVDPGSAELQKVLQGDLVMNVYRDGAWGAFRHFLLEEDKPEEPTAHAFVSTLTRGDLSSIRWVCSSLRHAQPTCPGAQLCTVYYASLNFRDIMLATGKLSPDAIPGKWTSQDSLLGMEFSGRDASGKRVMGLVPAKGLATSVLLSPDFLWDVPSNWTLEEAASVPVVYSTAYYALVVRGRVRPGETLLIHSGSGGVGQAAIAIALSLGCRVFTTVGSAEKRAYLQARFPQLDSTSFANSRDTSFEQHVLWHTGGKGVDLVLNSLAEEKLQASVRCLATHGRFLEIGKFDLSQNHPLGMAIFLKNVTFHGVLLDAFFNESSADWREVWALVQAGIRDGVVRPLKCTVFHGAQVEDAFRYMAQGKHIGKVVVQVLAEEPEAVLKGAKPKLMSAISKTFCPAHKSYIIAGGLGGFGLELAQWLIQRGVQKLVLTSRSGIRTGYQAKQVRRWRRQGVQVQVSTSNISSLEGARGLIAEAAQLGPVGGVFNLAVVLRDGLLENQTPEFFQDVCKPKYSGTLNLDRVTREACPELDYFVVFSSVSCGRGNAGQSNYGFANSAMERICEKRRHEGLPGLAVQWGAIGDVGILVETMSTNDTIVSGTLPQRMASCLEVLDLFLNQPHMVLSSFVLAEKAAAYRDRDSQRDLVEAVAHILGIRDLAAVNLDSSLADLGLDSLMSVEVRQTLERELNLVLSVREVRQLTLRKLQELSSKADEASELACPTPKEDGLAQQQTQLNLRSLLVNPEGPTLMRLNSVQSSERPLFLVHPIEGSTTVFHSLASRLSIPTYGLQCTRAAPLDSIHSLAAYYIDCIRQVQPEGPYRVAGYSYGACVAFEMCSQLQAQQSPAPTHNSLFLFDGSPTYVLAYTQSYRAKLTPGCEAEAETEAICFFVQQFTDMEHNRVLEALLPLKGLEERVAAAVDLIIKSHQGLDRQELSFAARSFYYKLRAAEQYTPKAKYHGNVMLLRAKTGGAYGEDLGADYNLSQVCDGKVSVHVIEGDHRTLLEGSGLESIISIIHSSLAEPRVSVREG

Fatty acid synthase [9] = target: T1, Fatty acid synthase; assay: FAS thioesterase domain inhibitors, dose response, biochemical, endpoint fluorescence intensity, uHTS hits (AID 624327); assay type: functional;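 note: fluorescence from hydrolysis of an O-methyl fluorescein acyl ester substrate by the enzyme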
[10] = target: T2, Carboxy-terminal domain RNA polymerase II polypeptide A small phosphatase 1 (Homo sapiens, UniProt Q9GZU7); assay: inhibitors of CTDSP1, concentration-response testing, biochemical assay, absorbance-based, actives from ultra-high-throughput screening (AID 540297); assay type: functional
T2 sequence (Q9GZU7 whole entry): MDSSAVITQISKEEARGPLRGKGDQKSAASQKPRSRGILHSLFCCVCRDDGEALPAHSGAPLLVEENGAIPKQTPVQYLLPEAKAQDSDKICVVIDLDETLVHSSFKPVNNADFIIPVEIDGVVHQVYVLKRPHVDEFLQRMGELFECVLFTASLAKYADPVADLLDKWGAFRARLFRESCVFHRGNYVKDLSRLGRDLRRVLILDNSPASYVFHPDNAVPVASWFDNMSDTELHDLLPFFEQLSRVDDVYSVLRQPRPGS

Cytochrome P450 3A4 = Cytochrome P450 3A4 (Homo sapiens, UniProt P08684);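 note: CYP3A4 tested as one member of a cytochrome P450 panel screen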
Cytochrome P450 2D6 = Cytochrome P450 2D6 (Homo sapiens, UniProt P10635);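 note: CYP2D6 member of a cytochrome P450 panel assay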
Chain of Cytochrome P450 2D6 (P10635 whole entry): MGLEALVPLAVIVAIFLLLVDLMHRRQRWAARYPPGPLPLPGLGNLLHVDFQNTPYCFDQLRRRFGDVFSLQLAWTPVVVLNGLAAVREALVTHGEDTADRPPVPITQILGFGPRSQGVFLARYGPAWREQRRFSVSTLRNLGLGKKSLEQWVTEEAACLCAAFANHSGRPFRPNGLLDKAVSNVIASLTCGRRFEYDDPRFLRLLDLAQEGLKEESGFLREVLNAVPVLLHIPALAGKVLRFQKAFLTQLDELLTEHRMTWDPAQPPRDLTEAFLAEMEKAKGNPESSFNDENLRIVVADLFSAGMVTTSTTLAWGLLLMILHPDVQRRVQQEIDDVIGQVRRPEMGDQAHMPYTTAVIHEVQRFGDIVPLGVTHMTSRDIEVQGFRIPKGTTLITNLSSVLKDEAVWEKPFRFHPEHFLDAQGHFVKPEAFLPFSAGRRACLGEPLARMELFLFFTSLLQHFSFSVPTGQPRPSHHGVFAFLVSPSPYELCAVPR

[11] = inhibitors of firefly luciferase expression or activity, dose response, H4 neuroglioma cells, luminescence (AID 1990); assay type: functional, cell-based
[12] = inhibitors of SNCA 5'UTR-driven reporter translation, confirmation, H4 neuroglioma cells, luminescence (AID 1988); assay type: functional, cell-based
[13] = Luminescence Cell-Based Dose Response HTS to Identify Inhibitors of 5'UTR Stem-Loop Driven Prion Protein mRNA Translation in H4 Neuroglioblastoma Cells. [Related pubchem assays: 1827 (Project Summary), 1813 (Primary HTS)]; assay type: functional
[14] = inhibitors of clade B AD8 Env fusion, dose response, cell-based, cherry-pick (AID 652062); assay type: functional;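 note: luciferase signal from cell-cell fusion driven by HIV-1 clade B AD8 Env; potency is for inhibitors of fusion seen as a drop in luminescence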
[15] = inhibitors of HIV Env-driven cell fusion, dose response, cherry-pick (AID 652057); assay type: functional, cell-based
Cytochrome P450 1A2 = target: T3, Cytochrome P450 1A2 (Homo sapiens, UniProt P05177);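 note: PubChem cytochrome P450 panel assay, CYP1A2 panel member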
T3 sequence (P05177 whole entry): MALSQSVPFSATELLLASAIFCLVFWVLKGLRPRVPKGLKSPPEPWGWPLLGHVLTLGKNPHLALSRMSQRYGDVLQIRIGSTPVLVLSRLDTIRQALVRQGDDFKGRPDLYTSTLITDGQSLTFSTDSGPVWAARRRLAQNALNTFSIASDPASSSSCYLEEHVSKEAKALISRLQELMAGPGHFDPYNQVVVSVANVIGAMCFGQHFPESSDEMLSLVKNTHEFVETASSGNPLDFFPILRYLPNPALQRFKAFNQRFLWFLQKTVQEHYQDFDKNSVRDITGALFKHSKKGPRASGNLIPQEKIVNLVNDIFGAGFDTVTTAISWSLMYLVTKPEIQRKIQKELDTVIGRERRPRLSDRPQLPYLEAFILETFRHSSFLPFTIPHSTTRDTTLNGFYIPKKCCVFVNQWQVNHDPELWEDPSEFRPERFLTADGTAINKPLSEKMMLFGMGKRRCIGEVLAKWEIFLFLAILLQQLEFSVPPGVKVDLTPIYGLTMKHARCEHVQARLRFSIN

For `CC(/C=C/c1ccc(Cl)o1)=C\C(=O)O`, the EC50 [1] was > 112 µM (not active) and the EC50 [2] was > 112 µM (not active).
For `O=C(C[C@@H]1C[C@H]2c3cc(NC(=O)Nc4ccc(C(F)(F)F)cc4)ccc3O[C@H]2[C@H](CO)O1)NCc1ccc(Cl)cc1`, the AC50 (Paired box protein Pax-8) was 17.5 µM (active) and the AC50 [3] was 68.2 µM (active).
For `O=C(CNC(=O)c1ccc([N+](=O)[O-])cc1)c1ccccc1`, the AC50 (Cytochrome P450 2C9) was “inconclusive” and the AC50 (Cytochrome P450 2C19) was 2.82 µM (inconclusive).
With `CCOC(=O)/C(=N\Nc1cccc(C(F)(F)F)c1)N1CCOCC1` the EC50 [4] was > 160 µM (inconclusive), the EC50 (cells [5]) was 320 µM (active) and the EC50 (cells [6]) was > 350 µM (not active). For the same compound, the EC50 [7] was > 38 µM (not active).
For `O=C(NCC1CCCO1)c1cc(-c2ccc(F)cc2)no1` (configuration not stated), the EC50 (cells [5]) was > 350 µM (not active) and the EC50 (cells [6]) was 143 µM (active).
For `COc1ccc(/C=C(\NC(=O)c2ccc([N+](=O)[O-])cc2)C(=O)NCCCn2ccnc2)cc1`, the IC50 (Fatty acid synthase [8]) was 3.01 µM (active) and the IC50 (Fatty acid synthase [9]) was 2.35 µM (active).
With `C[C@H]1CN([C@@H](C)CO)S(=O)(=O)c2ccc(C#Cc3ccc(F)cc3)cc2O[C@H]1CN(C)C(=O)NC1CCCCC1` the AC50 (Paired box protein Pax-8) was 8.09 µM (active) and the AC50 [3] was 44.5 µM (active).
With `COc1cc(/C=C(/C#N)C(=O)Nc2ccccc2)ccc1OCc1ccc(C(=O)O)cc1` the IC50 [10] was 3.34 µM (active).
In the case of `O=C(c1cccnc1)c1cc2ccccc2[nH]1`, the EC50 (cells [5]) is reported as 31.3 µM (active) and the EC50 (cells [6]) is reported as > 350 µM (not active).
For `Cn1cnc([N+](=O)[O-])c1Nc1ccccc1O`, the EC50 [1] was > 112 µM (not active) and the EC50 [2] was > 112 µM (not active).
In the case of `COc1ccc(S(=O)(=O)NCCC(=O)NCc2ccc(F)cc2)cc1`, the AC50 (Cytochrome P450 3A4) is reported as 28.2 µM (inconclusive), the AC50 (Cytochrome P450 2C9) is reported as “inconclusive” and the AC50 (Cytochrome P450 2D6) is reported as 50.1 µM (inconclusive).
In the case of `CN(CC1CCCO1)S(=O)(=O)c1ccc(C(=O)Nc2nccs2)cc1` (configuration not stated), the EC50 (cells [5]) is reported as > 350 µM (not active) and the EC50 (cells [6]) is reported as > 350 µM (not active).
For `COc1ccc(N/C=C\C(=O)c2ccc3c(c2)OCO3)cc1`, the EC50 (cells [5]) was 4.39 µM (active) and the EC50 (cells [6]) was > 350 µM (not active).
For `Cc1ccc(C(=O)N/N=C/c2cc(C)n(-c3ccc(Br)cc3)c2C)cc1[N+](=O)[O-]`, the EC50 [11] was 11.2 µM (active), the EC50 [12] was 16.7 µM (active) and the EC50 [13] was 17.4 µM (active). For the same compound, the AC50 (Cytochrome P450 2C9) was “inconclusive”.
For `O=C(Cn1ncc(Cl)c(Cl)c1=O)NC1CCS(=O)(=O)C1` (configuration not stated), the IC50 [10] was 8.49 µM (active).
In the case of `CCCC(=O)Nc1cc(C(F)(F)F)ccc1N1CCOCC1`, the EC50 [1] is reported as > 112 µM (not active) and the EC50 [2] is reported as > 112 µM (not active).
For `O=C(C[C@H]1CC[C@@H](NC(=O)c2cccc(F)c2)[C@H](CO)O1)NCc1ccc(Oc2ccccc2)cc1`, the AC50 [14] was 1.17 µM (active) and the AC50 [15] was 1.2 µM (active).
In the case of `COCCNC(=O)CSc1nc(-c2ccc(OC)c(OC)c2)cc(C(F)(F)F)n1`, the EC50 [1] is reported as > 112 µM (not active) and the EC50 [2] is reported as > 112 µM (not active).
In the case of `CCOc1ccc(-c2ccc(NS(=O)(=O)c3cc([N+](=O)[O-])c(C)c([N+](=O)[O-])c3)cc2)nn1`, the IC50 (Fatty acid synthase [8]) is reported as 0.706 µM (active) and the IC50 (Fatty acid synthase [9]) is reported as 0.872 µM (active).
In the case of `CCOc1ccccc1/C=C(\C#N)C(N)=O`, the AC50 (Cytochrome P450 2C9) is reported as “inconclusive”.
For `COc1ccc(S(=O)(=O)N2CCN(CC(=O)Nc3cccc(F)c3)CC2)cc1`, the AC50 (Cytochrome P450 1A2) was 0.0794 µM (inconclusive), the AC50 (Cytochrome P450 2C9) was “inconclusive” and the AC50 (Cytochrome P450 2D6) was 25.1 µM (inconclusive).
With `NC(=NOC(=O)CC1CCCCC1)c1cccc([N+](=O)[O-])c1` the IC50 (Fatty acid synthase [8]) was 8.29 µM (active) and the IC50 (Fatty acid synthase [9]) was 7.05 µM (active).
